From patent US20220185767A1, “NOVEL TERNARY MOLECULAR COMPLEX OF TAMIBAROTENE FOR CANCER STEM CELLS TREATMENT” (TRANSGENEX NANOBIOTECH, INC., priority 2019, published 2022)
Where two headings read alike, the source gives them in different places.

How the values were obtained:
[1] = tested on: A549; experiment: Monolayer Cell Culture Assay, IC50; type: cell-based; settings: A549, Lung
Excerpt: (§1) All IC50 studies' methodology and materials are described in full details in international publication number WO 2019/160806 dated Aug. 22, 2019, but with substituting the binary molecular complex with the ternary molecular complex of the present invention.

[2] = tested on: CT26; experiment: Monolayer Cell Culture Assay, IC50; type: cell-based; settings: Mus musculus, CT26, Colon
Excerpt: as §1

[3] = tested on: HCT116; experiment: Monolayer Cell Culture Assay, IC50; type: cell-based; settings: Homo sapiens, HCT-116, HCT116, Colon
Excerpt: as §1

[4] = tested on: HT29; experiment: Monolayer Cell Culture Assay, IC50; type: cell-based; settings: Homo sapiens, HT-29, HT29, Colon
Excerpt: as §1

[5] = tested on: MC38; experiment: Monolayer Cell Culture Assay, IC50; type: cell-based; settings: Mus musculus, MC-38, MC38, Colon
Excerpt: as §1

[6] = tested on: PANC-1; experiment: Monolayer Cell Culture Assay, IC50; type: cell-based; settings: PANC-1, Pancreas
Excerpt: as §1

[7] = tested on: PC-3; experiment: Monolayer Cell Culture Assay, IC50; type: cell-based; settings: PC-3, Prostate
Excerpt: as §1

[8] = tested on: SK-ES-1; experiment: Monolayer Cell Culture Assay, IC50; type: cell-based; settings: SK-ES-1, Sarcoma
Excerpt: as §1

[9] = tested on: SK-Mel-5; experiment: Monolayer Cell Culture Assay, IC50; type: cell-based; settings: SK-Mel-5, Skin
Excerpt: as §1

[10] = tested on: U-2 OS; experiment: Monolayer Cell Culture Assay, IC50; type: cell-based; settings: Sarcoma
Excerpt: as §1

[11] = cited from earlier work
[12] = type: physicochemical
Procedure: 30.0 mg of tamibarotene, 11.4 mg of L-malic acid and 43.5 mg of telmisartan (1:1:1 molar ratio) were stirred as an open slurry in 1 mL of acetone in a glass vial. After 16-24 hours of stirring mixture was further dried at room temperature until, a completely dried mixture is obtained. The resulted material was stored in a screw cap vial and characterized by PXRD and IR. PXRD comparison of binary tamibarotene-L-malic acid complex (TN-513) with tamibarotene-L-malic acid-telmisartan (TN-513-T) also confirmed the successful synthesis of a ternary complex. Synthesis of ternary TN-513-T was scaled up to 150 mg of tamibarotene and stability was tested on accelerated conditions (75% humidity at 40° C.) for 1 and three months.

[13] = tested on: lung cancer cells; experiment: Sphere assay; type: cell-based
Excerpt: All sphere assay studies methodology and materials are described in full details in international publication number WO 2019/160806 dated Aug. 22, 2019, but with substituting the binary molecular complex with the ternary molecular complex of the present invention.

[14] = Homo sapiens, average of two tests, read-out: IC50 Test AVG Avg
[15] = average of two tests, read-out: IC50 Test AVG Avg
[16] = Homo sapiens, read-out: IC50 Test (II) Avg
[17] = Homo sapiens, read-out: IC50 Test(I) Avg

CC1(C)CCC(C)(C)c2cc(NC(=O)c3ccc(C(=O)O)cc3)ccc21 [TAM, 4-[(5,5,8,8-tetramethyl-5,6,7,8-tetrahydronaphthalen-2-yl)carbamoyl]benzoic acid, reference compound]
IC50 [1, 14]: 60.3 µM
IC50 [2, 15]: 87.3 µM
IC50 ([2]; read-out: IC50 Test (I) Avg): 61.9 µM
IC50 ([2]; read-out: IC50 Test (II) Avg): 94.8 µM
IC50 [3, 15]: 60.4 µM
IC50 ([3]; read-out: IC50 Test (I) Avg): 49.6 µM
IC50 ([3]; read-out: IC50 Test (II) Avg): 71.3 µM
IC50 [4, 15]: 100 µM
IC50 ([4]; read-out: IC50 Test (I) Avg): 88.9 µM
IC50 ([4]; read-out: IC50 Test (II) Avg): 111 µM
IC50 [5, 15]: 101 µM
IC50 ([5]; read-out: IC50 Test (I) Avg): 65.7 µM
IC50 ([5]; read-out: IC50 Test (II) Avg): 137 µM
IC50 [6, 14]: > 100 µM
IC50 [6, 16]: > 100 µM
IC50 [6, 17]: > 100 µM
IC50 [7, 14]: > 100 µM
IC50 [7, 16]: > 100 µM
IC50 [7, 17]: > 100 µM
IC50 ([8]; Homo sapiens, SK-ES1, average of two tests, read-out: IC50 Test AVG Avg): > 100 µM
IC50 ([8]; Homo sapiens, SK-ES1, read-out: IC50 Test (II) Avg): > 100 µM
IC50 ([8]; Homo sapiens, SK-ES1, read-out: IC50 Test(I) Avg): > 100 µM
IC50 [9, 14]: > 100 µM
IC50 [9, 16]: > 100 µM
IC50 [9, 17]: > 100 µM
IC50 ([10]; Homo sapiens, U2OS, average of two tests, read-out: IC50 Test AVG Avg): > 100 µM
IC50 ([10]; Homo sapiens, U2OS, read-out: IC50 Test (II) Avg): > 100 µM
IC50 ([10]; Homo sapiens, U2OS, read-out: IC50 Test(I) Avg): > 100 µM
solubility in organic solvents ([11]; DMF, methanol, ethanol, DMSO, and other organic solvents): soluble
solubility in acetonitrile, water, and various other buffer solutions ([11]; acetonitrile, water, buffer solutions pH3~7 (CN 101200435 B)): insoluble

CC1(C)CCC(C)(C)c2cc(NC(=O)c3ccc(C(=O)O)cc3)ccc21.CCOc1nc2cccc(C(=O)O)c2n1Cc1ccc(-c2ccccc2-c2nn[nH]n2)cc1 [TN513:CS, Tamibarotene:L-malic acid:candesartan]
IC50 [1, 15]: 52.4 µM
IC50 ([1]; read-out: IC50 Test (II) Avg): 62.2 µM
IC50 ([1]; read-out: IC50 Test(I) Avg): 42.7 µM
IC50 [6, 15]: 70.6 µM
IC50 ([6]; read-out: IC50 Test (II) Avg): 88 µM
IC50 ([6]; read-out: IC50 Test(I) Avg): 53.3 µM
IC50 [7, 15]: 106 µM
IC50 ([7]; read-out: IC50 Test (II) Avg): 111 µM
IC50 ([7]; read-out: IC50 Test(I) Avg): 102 µM
IC50 [8, 15]: 31.4 µM
IC50 ([8]; read-out: IC50 Test (II) Avg): 33.6 µM
IC50 ([8]; read-out: IC50 Test(I) Avg): 29.2 µM
IC50 [9, 15]: 46.1 µM
IC50 ([9]; read-out: IC50 Test (II) Avg): 42.6 µM
IC50 ([9]; read-out: IC50 Test(I) Avg): 49.5 µM
IC50 [10, 15]: 42.8 µM
IC50 ([10]; read-out: IC50 Test (II) Avg): 45.8 µM
IC50 ([10]; read-out: IC50 Test(I) Avg): 39.9 µM

CC1(C)CCC(C)(C)c2cc(NC(=O)c3ccc(C(=O)O)cc3)ccc21.CCCCc1nc(Cl)c(CO)n1Cc1ccc(-c2ccccc2-c2nn[nH]n2)cc1 [TN513:LS, Tamibarotene:L-malic acid:losartan]
IC50 [1, 15]: 110 µM
IC50 ([1]; read-out: IC50 Test (II) Avg): 126 µM
IC50 ([1]; read-out: IC50 Test(I) Avg): 93.8 µM
IC50 [6, 15]: 126 µM
IC50 ([6]; read-out: IC50 Test (II) Avg): 149 µM
IC50 ([6]; read-out: IC50 Test(I) Avg): 104 µM
IC50 [7, 15]: 332 µM
IC50 ([7]; read-out: IC50 Test (II) Avg): 343 µM
IC50 ([7]; read-out: IC50 Test(I) Avg): 322 µM
IC50 [8, 15]: 106 µM
IC50 ([8]; read-out: IC50 Test (II) Avg): 122 µM
IC50 ([8]; read-out: IC50 Test(I) Avg): 90 µM
IC50 [9, 15]: 116 µM
IC50 ([9]; read-out: IC50 Test (II) Avg): 132 µM
IC50 ([9]; read-out: IC50 Test(I) Avg): 99.9 µM
IC50 [10, 15]: 64.8 µM
IC50 ([10]; read-out: IC50 Test (II) Avg): 69.6 µM
IC50 ([10]; read-out: IC50 Test(I) Avg): 59.9 µM

CC1(C)CCC(C)(C)c2cc(NC(=O)c3ccc(C(=O)O)cc3)ccc21.CCCc1nc2c(C)cc(-c3nc4ccccc4n3C)cc2n1Cc1ccc(-c2ccccc2C(=O)O)cc1.O=C(O)C[C@H](O)C(=O)O [TN513:TS, Tamibarotene:L-malic acid:telmisartan]
IC50 [1, 15]: 16 µM
IC50 ([1]; read-out: IC50 Test (II) Avg): 19.9 µM
IC50 ([1]; read-out: IC50 Test(I) Avg): 12 µM
IC50 [6, 15]: 32.5 µM
IC50 ([6]; read-out: IC50 Test (II) Avg): 40.2 µM
IC50 ([6]; read-out: IC50 Test(I) Avg): 24.8 µM
IC50 [7, 15]: 71.2 µM
IC50 ([7]; read-out: IC50 Test (II) Avg): 70.8 µM
IC50 ([7]; read-out: IC50 Test(I) Avg): 71.7 µM
IC50 [8, 15]: 17.9 µM
IC50 ([8]; read-out: IC50 Test (II) Avg): 18.4 µM
IC50 ([8]; read-out: IC50 Test(I) Avg): 17.4 µM
IC50 [9, 15]: 20.7 µM
IC50 ([9]; read-out: IC50 Test (II) Avg): 26.1 µM
IC50 ([9]; read-out: IC50 Test(I) Avg): 15.3 µM
IC50 [10, 15]: 12.9 µM
IC50 ([10]; read-out: IC50 Test (II) Avg): 14.6 µM
IC50 ([10]; read-out: IC50 Test(I) Avg): 11.2 µM
stability on accelerated conditions (PXRD) [12]: no change in PXRD data
preventing sphere aggregation (sphere formation efficacy) ([13]; FIG. 10): superior efficacy preventing sphere aggregation
total surface area of the cancer cell spheres ([13]; FIG. 11): dramatically reducing the total surface area
